Measured values from patent publication US20230075138A1 (priority 2021, published 2023).

Assays:
COVID-19 [1] = assay: Kaplan-Meier survival of COVID-19 positive patients hospitalized at the Mayo Clinic, by drug cohort; assay type: in vivo, human
COVID-19 [2] = assay: IL-6 level / ICU duration quadrants of COVID-19 ICU patients after therapeutic administration; assay type: in vivo, human; settings: for patient count in quadrant Q2 / proportion of patients in quadrant Q2: Q2: ICU ≥15 days or deceased and IL-6 <10 pg/mL; for patients in Q3: Q3: ICU <15 d and IL-6 ≥10 pg/mL; for Proportion of Group − Proportion of Other: cohort vs patients not taking the drug class
Experimental: Four categories of patient IL-6 level/ICU stay length were defined (i.e. the 4 quadrants described in Table 2). For each drug class with at least 10 patients, and for each quadrant with nonzero number of patients, the proportion of patients in the quadrant out of those taking a drug from the class were compared to the proportion of patients in the quadrant out of those not taking a drug from the class. Fisher exact test was performed to compute p-values on these proportion comparisons. A Benjamini-Hochberg adjustment was also applied to these p-values for multiple hypotheses.
Because only 10 patients met the aforementioned criteria, 10 additional COVID positive, ICU patients who only had IL-6 measured post-corticosteroid administration were also examined. Their IL-6 levels were plotted against the duration of ICU stay (see FIG. 3). Similarly, patients who received tocilizumab (n=5), azithromycin (n=49), hydroxychloroquine (n=10), and antivirals (lopinavir-ritonavir and ribavirin, n=4) were also examined. Patients were grouped into the following four categories based on IL-6 level, ICU status, and mortality: • (Q1) ICU<15 d and IL-6<10 pg/mL, • (Q2) ICU≥15 d or deceased and IL-6<10 pg/mL, • (Q3) ICU<15 d and IL-6≥10 pg/mL, and • (Q4) ICU≥15 d or deceased and IL-6≥10 pg/mL. […] As a corollary, corticosteroids have fewer patients (30%, n=20) in Q3 compared to tocilizumab (80%, n=5), azithromycin (61%, n=49), and hydroxychloroquine (60%, n=10). (See Table 2)

[3] = COVID-19 patients requiring ICU admission
[4] = all hospitalized COVID-19 patients
[5] = Q1: ICU <15 days and IL-6 <10 pg/mL
[6] = Q3: ICU <15 days and IL-6 ≥10 pg/mL
[7] = Q4: ICU ≥15 days or deceased and IL-6 ≥10 pg/mL

| Compound | survival rate at 60 days post-diagnosis (COVID-19 [1]; [3]) | survival rate at 60 days post-diagnosis (COVID-19 [1]; [4]) | patient count in quadrant Q1 (COVID-19 [2]; [5]) | patient count in quadrant Q2 (COVID-19 [2]) | proportion of patients in quadrant Q2 (COVID-19 [2]) | patients in Q3 (COVID-19 [2]) | patient count in quadrant Q3 (COVID-19 [2]; [6]) | patient count in quadrant Q4 (COVID-19 [2]; [7]) | also measured |
| --- | --- | --- | --- | --- | --- | --- | --- | --- | --- |
| CC[C@H]1OC(=O)[C@H](C)[C@@H](O[C@H]2C[C@@](C)(OC)[C@@H](O)[C@H](C)O2)[C@H](C)[C@@H](O[C@@H]2O[C@H](C)C[C@H](N(C)C)[C@H]2O)[C@](C)(O)C[C@@H](C)CN(C)[C@H](C)[C@@H](O)[C@]1(C)O [azithromycin] | 92% | 93% | 4 | 0 | (0) | 61% | 30 | 15 | Proportion of Group − Proportion of Other (COVID-19 [2]; quadrant Q1): −0.10; Proportion of Group − Proportion of Other (COVID-19 [2]; quadrant Q3): 0.17; Proportion of Group − Proportion of Other (COVID-19 [2]; quadrant Q4): −0.07 |
| C[C@]12C=CC(=O)C=C1CC[C@@H]1[C@@H]2C(=O)C[C@@]2(C)[C@H]1CC[C@]2(O)C(=O)CO [prednisone] |  | 92% |  |  |  |  |  |  |  |
| C[C@H]1C[C@@H]2[C@H]([C@@H](O)C[C@@]3(C)[C@H]2CC[C@]3(O)C(=O)CO)[C@@]2(C)C=CC(=O)C=C12 [methylprednisolone] |  |  |  |  |  |  |  |  | survival rate at 60 days post-diagnosis (COVID-19 [1]; human, in vivo): 77% |
| C[C@@H]1C[C@H]2[C@@H]3CCC4=CC(=O)C=C[C@]4(C)[C@@]3(F)[C@@H](O)C[C@]2(C)[C@@]1(O)C(=O)CO [dexamethasone] | 72% | 90% |  |  |  |  |  |  |  |
| C[C@]12CCC(=O)C=C1CC[C@@H]1[C@@H]2[C@@H](O)C[C@@]2(C)[C@H]1CC[C@]2(O)C(=O)CO [hydrocortisone] |  | 79% |  |  |  |  |  |  |  |
| CCN(CCO)CCCC(C)Nc1ccnc2cc(Cl)ccc12 (stereo not drawn) [hydroxychloroquine] | 100% |  | 2 | 0 | (0) | 60% | 6 | 2 | Proportion of Group − Proportion of Other (COVID-19 [2]; quadrant Q1): 0.08; Proportion of Group − Proportion of Other (COVID-19 [2]; quadrant Q3): 0.05; Proportion of Group − Proportion of Other (COVID-19 [2]; quadrant Q4): −0.13 |
| tocilizumab |  |  | 0 | 0 | (0) | 80% | 4 | 1 | survival 60 days post diagnosis (in words) (COVID-19 [1]; hospitalized COVID-19 patients): all 11 hospitalized patients receiving tocilizumab survived; proportion of patients in quadrant Q1 (COVID-19 [2]; [5]): (0); proportion of patients in quadrant Q3 (COVID-19 [2]; [6]): (0.8); proportion of patients in quadrant Q4 (COVID-19 [2]; [7]): (0.2) |
